Experimental data from patent publication US20240100062A1, “Methods of Treatment With an Iboga Alkaloid” (priority 2022, published 2024).
Values joined by “and” are separate entries in the source; they are usually repeats but may differ in a detail not shown here. Equal values may be shown once.

Assays:
[1] = tested on: special operations veterans; parameters: species or system human; conditions: in vivo
[2] = tested on: special operations veterans; assay: CAPS-5 clinician-administered PTSD scale, Example 1 study; type: in vivo, human; conditions: for CAPS-5 score, mean: p(FDR) <0.001
Method: (§1) With subjects in the fasting state, an intravenous infusion of 1 gram of magnesium sulfate was administered 1-2 hours prior to treatment. […] Medical staff (MD, RN, or EMT) were onsite at a ratio of at least 1 staff per 2 patients throughout treatment for monitoring and management, but no specific coaching or psychological support was provided during treatment.
(§2) Post treatment, each subject was assessed four days after treatment, one month after treatment, and, if willing, one year after treatment. The post-treatment assessments conducted at four days and at one month after treatment included neuropsychological testing, measures of PTSD, depression, anxiety, mystical experiences, functional imaging and EEG. Post-treatment assessments conducted at one year after treatment included PTSD, depression, and anxiety measures.
(§3) Clinician administered scales included CAPS-5 (Clinician-administered PTSD Scale for DSM-5), which is a gold standard assessment of PTSD symptom severity; MADRS (Montgomery-Asberg Depression Rating Scale), a measure for depressive symptom severity; and Hamilton-Anxiety Rating Scale (HAM-A) (Shear, M. K. et al., Depress. Anxiety 13, 166-178 (2001)) a measure for anxiety symptom severity; SCID-5 (Structured Clinical Interview for DSM-5) Overview for a historical and environmental context of symptom presentation; MINI DSM-5 (Mini International Neuropsychiatric Interview from DSM-5) for a structured psychodiagnostics assessment; BAT-L (Boston Assessment of TBI—Lifetime) for a lifetime history of TBI and blast exposure; and Ohio State University TBI Identification Method (Short Form) for a lifetime history of TBI. MADRS testing provides an indication of depressive symptoms, CAPS-5 provides an indication of PTSD and SIGH-A provides an indication of anxiety. Collectively these overlap to provide indication of mood, concentration, sleep and tension.
For the CAPS-5, the test version with a […] structured interview of PTSD symptoms over the past week was used, using a 0 (“Absent”) to 4 (“Extreme/Incapacitating”) scale, with possible total scores ranging from 0 to 80. The score range 23 to 34 is considered moderate PTSD while a higher score represents severe PTSD (Weathers, F. W. et al., Psychol. Assess. 30, 383-395 (2018)).

[3] = tested on: special operations veterans; assay: Hamilton Anxiety Rating Scale (HAM-A), Example 1 study; type: in vivo, human; conditions: for HAM-A score, mean: p(FDR) <0.001
Method: as §1, §2, §3
To assess anxiety symptoms, the Hamilton Anxiety Rating Scale was used. This scale includes 14-items assessing both psychic and physical symptoms of anxiety. Items are rated on a scale from 0 (no symptoms) to 4 (severe symptoms). Total score ranges were: no or minimal anxiety (≤7), mild (8-14), moderate (15-23), and severe anxiety symptoms (≥24) (Matza et al., Int. J Methods Psychiatr. Res. 19, 223-232 (2010)).

[4] = tested on: special operations veterans; assay: Lag projection analysis of BOLD fMRI; type: in vivo, human; conditions: baseline vs about four days post treatment; left orbitofrontal gyrus (lateral and anterior) and inferior frontal gyrus (orbital and triangular); fwec p<0.001
Method: fMRI data was also analyzed to inspect activity patterns as a function of time. A lag projection analysis measures temporal dynamics of blood oxygen level-dependent (BOLD) fMRI (Mitra et al., PNAS, E2235-E2244, 2015). Directed flow transfer of information is analyzed by comparing lag-correlation shift between voxel pairs. The average lag structure of a voxel indicates relative earliness or lateness in the brain, as a measure of whether the region is a source or sink of information. A paired T-test of fMRI images at baseline and about four days post treatment was done. […] These regions are involved in language formation, response inhibition and regulating goal-directed behavior. Slowing may reflect sustained processing and influence over the brain across long time scales.

[5] = tested on: special operations veterans; assay: Neuropsychological battery overall, Example 1 study; type: in vivo, human; conditions: post treatment time points
Text: A summary of the results is in Table 1 and Table 1-6 of Example 1. […] In Table 1, neuropsychological test scores are represented as a T score (mean of 50, SD of 10). Unless stated otherwise, a higher score represents better performance.
Neuropsychological testing of the enrolled subjects was designed to examine abilities over several domains of cognitive functioning, including estimated intelligence quotient (IQ), verbal fluency, working memory (visual and auditory), long term memory (visual and auditory), processing speed, sustained attention, problem solving, ability to perceive patterns, executive functioning, such as ability to hold and manipulate or update information in the head, inhibition, ability to organize, plan, and develop solutions to problems. In addition, assessments examining cognitive abilities over several domains of functioning were done to evaluate the safety of ibogaine use. […]

BDNF and GDNF = conditions: cited from earlier work

## CCC1CC2CC3c4[nH]c5ccc(OC)cc5c4CCN(C2)C13 (stereo not drawn) [ibogaine, Ibogaine]
[1]
  Detection (CPT-3 Detection), D: 0.86
  Reaction Time (CPT-3 Reaction Time), D: 0.52 and 0.29
  Reaction Time (CPT-3 Reaction Time), mean ± SD: 44.1 ± 6.8 T score and 46.4 ± 8.1 T score
  Slowing of reaction time, D: 0.29-0.52
  Sustained Attention (CPT-3 Hit Reaction Time Block Change), mean ± SD: 50.8 ± 7.9 T score and 51.2 ± 7.7 T score
[2]; 1-mo. post, SD 8.1, baseline 31.7 ± 13.0, N 28, only participants with mild TBI
  CAPS-5 score, mean: 4.8
[2]; 1-mo. post, SD 8.7, baseline 35.7 ± 11.0, N 23, only participants meeting diagnostic criteria per MINI at baseline
  CAPS-5 score, mean: 6.0
[2]; 1-mo. post, SD 17%, only participants with mild TBI
  CAPS-5 % Reduction vs Baseline, mean: 88% ±
[2]; 1-mo. post, SD 19%, only participants meeting diagnostic criteria per MINI
  CAPS-5 % Reduction vs Baseline, mean: 86% ±
[2]; 1-wk post, SD 5.2, baseline 35.7 ± 11.0, N 23, only participants meeting diagnostic criteria per MINI at baseline
  CAPS-5 score, mean: 4.4
[2]; 1-wk. post, SD 4.5, baseline 31.7 ± 13.0, N 28, only participants with mild TBI
  CAPS-5 score, mean: 3.6
[2]; 1-wk. post, SD 14%, only participants with mild TBI
  CAPS-5 % Reduction vs Baseline, mean: 89% ±
[2]; 1-wk. post, SD 17%, only participants meeting diagnostic criteria per MINI
  CAPS-5 % Reduction vs Baseline, mean: 87% ±
[3]; 1-mo. post, SD 4.6, baseline 20.7 ± 8.6, N 28, only participants with mild TBI
  HAM-A score, mean: 3.7
[3]; 1-mo. post, SD 6.3, baseline 23.8 ± 7.6, N 14, only participants meeting diagnostic criteria per MINI at baseline
  HAM-A score, mean: 5.1
[3]; 1-mo. post, SD 21%, only participants with mild TBI
  HAM-A % Reduction vs Baseline, mean: 82% ±
[3]; 1-mo. post, SD 23%, only participants meeting diagnostic criteria per MINI
  HAM-A % Reduction vs Baseline, mean: 80% ±
[3]; 1-wk post, SD 3.4, baseline 23.8 ± 7.6, N 14, only participants meeting diagnostic criteria per MINI at baseline
  HAM-A score, mean: 4.2
[3]; 1-wk. post, SD 3.3, baseline 20.7 ± 8.6, N 28, only participants with mild TBI
  HAM-A score, mean: 3.3
[3]; 1-wk. post, SD 14%, only participants meeting diagnostic criteria per MINI
  HAM-A % Reduction vs Baseline, mean: 82% ±
[3]; 1-wk. post, SD 19%, only participants with mild TBI
  HAM-A % Reduction vs Baseline, mean: 82% ±
[4]
  Lag structure change (BOLD fMRI): relative slowing
[5]
  Declines across performance domains: No declines were noted across any performance domain
BDNF and GDNF
  Transcription of neurotrophic factors including BDNF and GDNF: increases the transcription of neurotrophic factors
